In patent US10399995B2, “1,4-Oxazines useful as selective BACE1 inhibitors” (Eli Lilly and Company, priority 2016, dated 2019):
Read-outs that look alike come from different tables or passages of the source.

Assays:
[1] = molecular target: T1, Human BACE1(1-460):Fc (Homo sapiens, UniProt P56817); assay: BACE1 FRET Assay; assay type: biochemical; settings: purified recombinant huBACE1:Fc, pH 4.6, mean ± standard deviation of the mean, n=13
T1 construct: made in house; host or cells: HEK293 (transient transfection, purified from conditioned media by Protein A)
T1 sequence (P56817 22-460): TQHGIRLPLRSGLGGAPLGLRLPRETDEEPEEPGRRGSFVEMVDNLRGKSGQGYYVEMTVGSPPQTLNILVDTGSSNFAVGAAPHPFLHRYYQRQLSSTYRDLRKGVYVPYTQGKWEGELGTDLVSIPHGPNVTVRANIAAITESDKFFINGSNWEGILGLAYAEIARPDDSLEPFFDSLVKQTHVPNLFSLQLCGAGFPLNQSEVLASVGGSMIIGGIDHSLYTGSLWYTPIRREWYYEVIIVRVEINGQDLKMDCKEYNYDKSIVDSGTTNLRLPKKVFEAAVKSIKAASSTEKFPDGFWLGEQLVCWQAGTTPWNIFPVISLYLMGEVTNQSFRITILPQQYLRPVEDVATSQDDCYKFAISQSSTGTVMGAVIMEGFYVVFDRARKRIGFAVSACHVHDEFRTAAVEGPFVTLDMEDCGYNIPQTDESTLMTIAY
Protocol: (§1) To assess selectivity of BACE1 over BACE2, the test compound is evaluated in FRET assays using specific substrates for BACE1 and BACE2 as described below. For in vitro enzymatic and cellular assays, the test compound is prepared in DMSO to make up a 10 mM stock solution. The stock solution is serially diluted in DMSO to obtain a ten-point dilution curve with final compound concentrations ranging from 10 μM to 0.05 nM in a 96-well round-bottom plate before conducting the in vitro enzymatic and whole cell assays.
(§2) Human BACE1 (accession number: AF190725) and human BACE2 (accession number: AF 204944) are cloned from total brain cDNA by RT-PCR. The nucleotide sequences corresponding to amino acid sequences #1 to 460 are inserted into the cDNA encoding human IgG1 (Fc) polypeptide (Vassar et al., Science, 286, 735-742 (1999)). […]
(§3) Conditioned media of HEK293 cells transiently transfected with huBACE1:Fc or huBACE2:Fc cDNA are collected. […] The purity of the final product is assessed by electrophoresis in 4-20% Tris-Glycine SDS-PAGE. […]
Serial dilutions of the test compound are prepared as described above. […] The RFU of the mixture at time 0 is recorded at excitation wavelength 355 nm and emission wavelength 460 nm, after brief mixing on a plate shaker. […] The RFU at the end of incubation is recorded with the same excitation and emission settings used at time 0. […]

[2] = molecular target: T2, human BACE2 (1-460):Fc (Homo sapiens, UniProt Q9Y5Z0); assay: BACE2 TMEM27 FRET Assay; assay type: biochemical
T2 construct: made in house; host or cells: HEK293 (transient transfection, purified from conditioned media by Protein A)
T2 sequence (Q9Y5Z0 21-460): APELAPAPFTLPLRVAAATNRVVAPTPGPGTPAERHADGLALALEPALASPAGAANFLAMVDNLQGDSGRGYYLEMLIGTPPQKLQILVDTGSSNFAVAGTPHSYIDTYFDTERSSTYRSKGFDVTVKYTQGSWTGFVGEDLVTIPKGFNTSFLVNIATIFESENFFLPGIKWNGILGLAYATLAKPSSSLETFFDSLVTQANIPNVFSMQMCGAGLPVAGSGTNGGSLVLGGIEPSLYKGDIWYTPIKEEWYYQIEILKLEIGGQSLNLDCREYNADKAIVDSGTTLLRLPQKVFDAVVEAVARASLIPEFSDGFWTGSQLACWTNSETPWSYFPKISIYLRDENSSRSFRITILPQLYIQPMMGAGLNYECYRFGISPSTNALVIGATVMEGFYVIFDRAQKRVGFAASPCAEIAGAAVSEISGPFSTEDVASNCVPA
Protocol: as §1, §2, §3
Serial dilutions of test compound are prepared as described above. […] The RFU of the mixture at time 0 is recorded at excitation wavelength 430 nm and emission wavelength 535 nm. […] The RFU at the end of incubation is recorded with the same excitation and emission settings used at time 0. […]

[3] = molecular target: T3, BACE1 (Homo sapiens, UniProt P56817); assay: SH-SY5YAPP695Wt Whole Cell Assay; assay type: cell-based; settings: SH-SY5Y cells expressing human APP695Wt, 24 hours, conditioned media, mean ± standard deviation of the mean, n=3
T3 construct: endogenous in cells; host or cells: SH-SY5Y (ATCC CRL2266) stably expressing human APP695Wt
T3 sequence (P56817 46-501): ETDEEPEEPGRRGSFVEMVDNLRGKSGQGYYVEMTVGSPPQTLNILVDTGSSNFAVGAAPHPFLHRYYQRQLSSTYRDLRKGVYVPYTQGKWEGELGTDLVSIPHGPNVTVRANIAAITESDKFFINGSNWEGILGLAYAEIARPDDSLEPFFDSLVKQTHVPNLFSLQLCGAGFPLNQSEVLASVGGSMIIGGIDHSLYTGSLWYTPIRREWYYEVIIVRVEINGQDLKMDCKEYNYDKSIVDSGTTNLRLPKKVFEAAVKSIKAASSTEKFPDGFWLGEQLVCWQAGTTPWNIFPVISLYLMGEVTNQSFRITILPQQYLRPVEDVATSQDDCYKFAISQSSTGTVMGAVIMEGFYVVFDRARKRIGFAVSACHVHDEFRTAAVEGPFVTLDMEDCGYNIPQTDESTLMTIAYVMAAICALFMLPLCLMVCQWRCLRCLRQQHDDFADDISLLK
Protocol: as §1
The routine whole cell assay for the measurement of inhibition of BACE1 activity utilizes the human neuroblastoma cell line SH-SY5Y (ATCC Accession No. CRL2266) stably expressing a human APP695Wt cDNA. Cells are routinely used up to passage number 6 and then discarded.
SH-SY5YAPP695Wt cells are plated in 96 well tissue culture plates at 5.0×10^4 cells/well in 200 μL culture media (50% MEM/EBSS and Ham's F12, 1× each sodium pyruvate, non-essential amino acids and NaHCO3 containing 10% FBS). The following day, media is removed from the cells, fresh media added then incubated at 37° C. for 24 hours in the presenceabsence of test compound at the desired concentration range.
At the end of the incubation, conditioned media are analyzed for evidence of beta-secretase activity by analysis of Abeta peptides 1-40 and 1-42 by specific sandwich ELISAs. […]

IC50 [1]: 8.18 nM | IC50 ([2]; TMEM27 LucY FRET assay, huBACE2:Fc, pH 4.6, mean ± standard deviation of the mean, n=6): 446 nM | ratio of BACE1 (FRET IC50 enzyme assay) to BACE2 (TMEM27 LucY FRET assay) ([2]; selectivity for BACE1 over BACE2): approximately 50 fold | IC50 ([3]; read-out: IC50 for SH-SY5YAPP695Wt A-beta (1-40) ELISA): 1.88 nM | IC50 ([3]; read-out: IC50 for SH-SY5YAPP695Wt A-beta (1-42) ELISA): 3.55 nM
SMILES: C[C@@]1(c2cc(NC(=O)c3nc4ccc(C#N)nc4s3)ccc2F)CO[C@@](C)(C(F)(F)F)C(N)=N1 [Example 1, N-[3-[(3R,6R)-5-Amino-3,6-dimethyl-6-(trifluoromethyl)-2H-1,4-oxazin-3-yl]-4-fluoro-phenyl]-5-cyano-thiazolo[5,4-b]pyridine-2-carboxamide]
